Consider four compounds from paper PMC10661964 (Current Drug Metabolism, 2023).

Broadly, the Tmax is the time at which the peak concentration occurs.

Read-outs that look alike come from different tables or passages of the source. Marks after values point to notes of the source that are not given here.

A short description of data set [1]: Quantification of nifurtimox and metabolites in human plasma (LC-HRMS), plasma PK. As to conditions: fed; for AUC(tlast-∞) (extrapolated proportion): pooled plasma of 6 patients, single oral 120 mg nifurtimox; for AUC, % of total quantified exposure: sum of AUC of nifurtimox and M-1 to M-6 = 100%, single oral 120 mg. It is filed as in vivo. On the procedure:
Plasma samples from timepoints 0, 0.25, 0.5, 0.75, 1, 1.5, 2, 2.5, 3, 4, 6, 8, 12, 15, and 24 h from 6 patients were analyzed. Blood samples were collected into lithium heparinized tubes. Blood cells and plasma were then separated by centrifugation, and the plasma was stored frozen until needed. For the analysis, plasma samples were thawed at room temperature and homogenized by vortex mixing. Equal volumes of plasma from the six patients for each timepoint were combined to a pooled volume of 200 µL. To precipitate protein, a 3-fold volume of acetonitrile/0.5% formic acid (v/v in water) was added to each pooled sample which was thoroughly mixed and then centrifuged at 20,000 g. […] For all analytes, the analytical precision ranged from 0.1% to 8.8%, and the accuracy was 95% to 108%.

A short description of data set [2]: Quantification of nifurtimox and metabolites in rat plasma after a single high dose (200 mg/kg). It is filed as in vivo, Wistar rats. As to conditions: Wistar, rat, plasma, po, 200 mg/kg. The protocol:
Blood cells and plasma were then separated by centrifugation, and the plasma was stored at ≤-15°C until required. For analysis, plasma samples were thawed at room temperature and homogenized by vortex mixing. Plasma samples were pooled separately for male and female rats by combining 25 µL from each of the 4 animals for each timepoint. […] To each pooled plasma (100 µL), calibration, or control sample, 300 µL of an internal standard solution containing [^2H8]-nifurtimox (500 ng/mL) and [^2H3]-M-6 (2500 ng/mL) in acetonitrile + 0.5% formic acid in water (v/v) was added and mixed thoroughly. All samples were then centrifuged (20,000 g, 5 min) to precipitate the protein. The supernatant was analyzed using a 1290 Infinity LC system equipped with a diode array detector and an Orbitrap Q-Exactive Plus HRMS (Thermo Fisher Scientific, Bremen, Germany) with a heated electrospray ionization source. […] The mobile phase gradient was: 0 min, 0% B; 2.5 min, 0% B; 3 min, 20% B; 8 min, 45% B; 9 min, 90% B; 10.1 min, 90% B; 12 min, 0% B; 13 min, 0% B. The following HRMS parameters were used: mass range, 120-200 Da (0-2.5 min) and 230-600 Da (2.5-13 min) in full scan mode; resolution, 280,000; ion source voltage, 3500 V; capillary temperature, 300°C; source temperature, 60°C.
The calibration was based on the relative peak area as a function of concentration obtained by linear regression. […] Thus, all concentrations in μg/mL were back-calculated to nmol/mL. The PK parameters for each analyte were calculated using ToxKin software, as described above.

The nature of data set [3]: Quantification of nifurtimox and metabolites in human urine (LC-HRMS). The data set is classed as in vivo. As to conditions: single oral 120 mg nifurtimox; for AE,urine(0–24h), fasted patients: mean of 6 fasted patients with Chagas disease; for AE,urine(0–24h), fed patients: mean of 6 fed patients with Chagas disease. On the procedure: Urine samples were collected from fasted and fed patients pre-dose (0 h) and at four post-dose intervals (0-4, 4-8, 8-12, and 12-24 h) and stored frozen until required. For analysis, urine samples were thawed at room temperature and homogenized by vortex mixing. […] Equal volumes (75 µL) of an internal standard solution of [^2H8]-nifurtimox dissolved in water (10 µg/mL) were added to each urine, calibration, or control sample and mixed thoroughly. Samples from 6 patients were then analyzed using liquid chromatography-high-resolution mass spectrometry (LC-HRMS) with a 1290 Infinity LC system equipped with a diode array detector and an Orbitrap Fusion™ Lumos™ Tribrid™ HRMS (Thermo Fisher Scientific, Bremen, Germany) with a heated electrospray ionization source. For quantification, the LC conditions were as described above for analysis of rat plasma, and the HRMS parameters were: mass range, 120-600 Da in full scan mode and all ion fragmentation in positive ionization mode; resolution, 240,000; ion source voltage, 3500 V; capillary temperature, 300°C; source temperature, 60°C.
The system was calibrated using the relative peak area as a function of concentration, which was obtained by linear regression. Quantification was performed on a mass basis (μg/mL), with the final calculation for the percentage of dose excreted in urine made on a molar basis to account for the substantial differences (up to ~2.5-fold) in the molecular masses of the compounds of interest. The analytical precision for all analytes was in the range of 1.1% to 4.4%, with an accuracy of 94% to 107%. All concentrations in μg/mL were back-calculated to nmol/mL, and these concentrations were then used to calculate a total molar amount based on the urine volume collected during each interval.

Data set [4] in a line: Mass balance and metabolite profiling in excreta after oral [14C]-nifurtimox in intact rats. The conditions noted are these: intact male Wistar rats, 2.5 mg/kg oral, up to 120 h; 2.5 mg/kg.
Protocol: After an adaption period, the animals were prepared for the study. Bile duct cannulation was performed on selected animals the day before their use in experiments.
In a mass balance study (n = 5) and a PK study (n = 2 per timepoint), 2.5 mg/kg b.w. […] For i.v. administration, 2.5 mg/kg b.w. […] In an additional stability study, male Wistar rats (n = 3 per timepoint) were administered 2.5 mg/kg b.w. […] The total radioactivity concentration in the dosage form was confirmed by liquid scintillation counting (LSC).
Animals were housed in suitable metabolism cages. Blood was collected from separate rats at 0.25, 0.5, 1, 1.5, 2, 3, 5, and 8 h post-dose and stored in lithium heparinized tubes. Blood cells and plasma were separated by centrifugation. Plasma was stored at ≤-15°C prior to analysis. […] At the end of the study, the cages were rinsed with water, and samples were collected. All biological samples were weighed immediately. Feces samples were homogenized with water to obtain a uniform radioactivity distribution. All samples were stored deep-frozen at ≤-15/-70°C before further processing. During the necropsy, selected organs and tissues were collected and wet-weighed. The remaining carcass was also wet-weighed. The carcass and all tissues were homogenized and stored at room temperature prior to processing for analysis. In the stability study, blood and urine were collected at 0.25 and 0.5 h post-dose. Plasma and urine were immediately frozen in liquid nitrogen and stored at -80°C to prevent degradation. The total radioactivity in samples and tissues was determined by LSC after appropriate sample preparation.
Aliquots of individual urine or bile samples were pooled separately for each time interval by equal volume and analyzed using HPLC-LSC. Aliquots of individual feces samples were pooled separately for each time interval, ensuring that each aliquot contained the same amount of radioactivity. The pooled samples were extracted twice with a mixture of acetonitrile/water (80:20 v/v, 2 x 0.5 mL). The resulting suspensions were centrifuged (20,000 g, 5 min), and the supernatants were then combined for each time interval, concentrated, and subjected to HPLC-LSC.
The amount of total radioactivity in urine, feces, bile, and tissues was determined by multiplying the volume or weight of the samples by the respective total radioactivity concentration. The amount of radioactivity recovered in the excreta (AE), cage wash, and tissues was compared with the administered radioactive dose to establish the radioactive balance. Cumulative excretion was calculated as the sum of the excretion for each collection interval. Arithmetic means and coefficients of variation (CV) were calculated for these percentages. During metabolite profiling, the concentration or amount of each analyte for each sample and timepoint or interval was calculated by multiplying the total radioactivity concentration or amount excreted of each sample with the percent area of each analyte obtained after HPLC-LSC separation.
The nature of data set [5]: Stability study: metabolite profiles in snap-frozen plasma and urine at early timepoints after oral [14C]-nifurtimox. The data set is classed as in vivo, male Wistar rats. The conditions noted are these: oral 2.5 mg/kg, snap-frozen. The protocol:
(§1) Animals were housed in suitable metabolism cages. […] Blood cells and plasma were separated by centrifugation. Plasma was stored at ≤-15°C prior to analysis. […] All biological samples were weighed immediately. […] The remaining carcass was also wet-weighed.
The combined supernatant was analyzed directly using HPLC-LSC.

The nature of data set [6]: Plasma PK of total radioactivity, [14C]-nifurtimox and metabolites after oral dosing (HPLC-LSC). As to conditions: male Wistar rats; for %AUC(0-8) (relative to total radioactivity AUC(0-8)): oral 2.5 mg/kg, M-2+M-3, M-4, M-5 are estimates based on AUC(0-tn); for half-life / Tmax: rat; for half-life: plasma, interval up to 8 h, read-out: t½ (converted). It is filed as in vivo. On the procedure: as §1
Aliquots of individual plasma samples were pooled separately for each timepoint by equal volume. For protein precipitation, pooled plasma was treated with a three-fold volume of acetonitrile. Samples were homogenized and precipitated by centrifugation (20,000 g, 5 min). Samples were concentrated and analyzed using high-performance liquid chromatography (HPLC) with off-line radioactivity detection by LSC (HPLC-LSC).

Setting [7] is: female, read-out: AUC(0–24), female animals.
[8] abbreviates: female, read-out: AUC, female animals.
[9] abbreviates: female, read-out: Cmax, female animals.
The mark [10] stands for this setting: female, read-out: tmax, female animals.
[11] abbreviates: female, read-out: t½, female animals (converted).
Setting [12] is: male, read-out: AUC(0–24), male animals.
Where [13] appears, read: male, read-out: AUC, male animals.
Where [14] appears, read: male, read-out: Cmax, male animals.
[15] abbreviates: male, read-out: tmax, male animals.
Where [16] appears, read: male, read-out: t½, male animals (converted).
The mark [17] stands for this setting: single oral 2.5 mg/kg [14C]-nifurtimox, pooled plasma.
Where [18] appears, read: single oral 2.5 mg/kg [14C]-nifurtimox.

Consider `CC1CS(=O)(=O)CCN1/N=C/C(=O)CCC#N` (stereo not drawn) [M-1], for which, in data set [1], the “AUC(tlast-∞) (extrapolated proportion)” value is listed as 7.6%. Further, in data set [1], the “AUC, % of total quantified exposure” value came to 1.8%. Moreover, the results for the AUC(0-t) in data set [2] (setting [7]) and in data set [2] (setting [12]) were 36.7 µM·h and 28.2 µM·h, respectively. Further, the AUC in data set [2] (setting [8]) turned out to be 44.2 µM·h; in data set [2] (setting [13]), 46.6 µM·h; in data set [6] (setting [17]), 767 µg-eq*h/L. In addition, the Cmax in data set [2] (setting [9]) stood at 2050 nM; in data set [2] (setting [14]), 1390 nM; in data set [6] (setting [17]), 138 µg-eq/L. The figures for the Tmax in data set [2] (setting [10]), in data set [2] (setting [15]) and in data set [6] (setting [17]) were 8 h, 24 h and 3 h, respectively. Further, the half-life in data set [2] (setting [11]) was 4.6 h; in data set [2] (setting [16]), 4.2 h; in data set [6] (setting [18]) it was 1.36 h. In addition, the “AE,urine(0–24h), fasted patients” value in data set [3] is 3.2 % of dose. In addition, the “AE,urine(0–24h), fed patients” value in data set [3] is on record as 2.0 % of dose. The “component excreted in feces, oral dosing” value in data set [4] is on record as 1.5 % of the administered dose. Moreover, the “share of sample radioactivity in plasma” value is 1.4 % of sample radioactivity in data set [5] (0.25 h post-dose) and 2.3 % of sample radioactivity in data set [5] (0.5 h post-dose). In data set [6], the “%AUC(0-8) (relative to total radioactivity AUC(0-8))” value is on record as 16.1%. Further, the “AUC(0-8)” value in data set [6] (setting [17]) was determined as 715 µg-eq*h/L. Moreover, in data set [6] (setting [17]), the “AUC(0-tn)” value is given as 715 µg-eq*h/L. For the same compound, the “tn (time of last quantifiable concentration)” value in data set [6] (setting [17]) is listed as 8 h.
`CC1CS(=O)(=O)CCN1/N=C/C(CCC(=O)O)=N\O` (stereo not drawn) [M-2]: the “AUC(tlast-∞) (extrapolated proportion)” value in data set [1] is reported as 7.8%. The “AUC, % of total quantified exposure” value in data set [1] worked out at 1.4%. Besides, the AUC(0-t) in data set [2] (setting [7]) was 3.22 µM·h; in data set [2] (setting [12]), 3.31 µM·h. Also, the results for the AUC in data set [2] (setting [8]) and in data set [2] (setting [13]) were 3.63 µM·h and 13.4 µM·h, respectively. Moreover, the Cmax in data set [2] (setting [9]) stood at 447 nM; in data set [2] (setting [14]), 220 nM. Further, the Tmax in data set [2] (setting [10]) and in data set [2] (setting [15]) was 2 h in each case. For the same compound, the half-life in data set [2] (setting [11]) is 8.5 h; in data set [2] (setting [16]), 63.3 h. Further, the “AE,urine(0–24h), fasted patients” value in data set [3] is given as 1.0 % of dose. Also, the “AE,urine(0–24h), fed patients” value in data set [3] is recorded as 2.4 % of dose.
Turning to `CC1CS(=O)(=O)CCN1/N=C/C(=O)CCC(=O)O` (stereo not drawn) [M-3], in data set [1], the “AUC(tlast-∞) (extrapolated proportion)” value is 49.2%. The “AUC, % of total quantified exposure” value in data set [1] is listed as 1.2^a %. The AUC(0-t) turned out to be 3.54 µM·h in data set [2] (setting [7]) and 3.64 µM·h in data set [2] (setting [12]). Further, the AUC in data set [2] (setting [8]) amounted to 3.7 µM·h; in data set [2] (setting [13]) it was 10.1 µM·h. In addition, the Cmax amounted to 547 nM in data set [2] (setting [9]) and 255 nM in data set [2] (setting [14]). Further, the time of peak concentration (Tmax) in data set [2] (setting [10]) and in data set [2] (setting [15]) was 1 h throughout. The half-life in data set [2] (setting [11]) is 5.8 h; in data set [2] (setting [16]), 39.6 h. The “AE,urine(0–24h), fasted patients” value in data set [3] was 0.06 % of dose. Moreover, the “AE,urine(0–24h), fed patients” value in data set [3] was 0.15 % of dose. In data set [4], the “component excreted in feces, oral dosing” value is listed as 3.6 % of the administered dose.
Consider `CC(=O)NC(CSc1ccc(=O)n(N2CCS(=O)(=O)CC2C)c1)C(=O)O` (stereo not drawn) [M-5], for which the “AUC(tlast-∞) (extrapolated proportion)” value in data set [1] is on record as 11.7%. Besides, the “AUC, % of total quantified exposure” value in data set [1] was determined as 0.5%. Also, the AUC(0-t) in data set [2] (setting [7]) came to 1.42 µM·h; in data set [2] (setting [12]), 4.64 µM·h. The AUC in data set [2] (setting [8]) amounted to 2.43 µM·h; in data set [2] (setting [13]), 8.02 µM·h; in data set [6] (setting [17]), 177 µg-eq*h/L. The figures for the Cmax in data set [2] (setting [9]), in data set [2] (setting [14]) and in data set [6] (setting [17]) were 186 nM, 328 nM and 32.1 µg-eq/L, respectively. Further, the time of peak concentration (Tmax) in data set [2] (setting [10]) worked out at 3 h; in data set [2] (setting [15]) it was 3 h; in data set [6] (setting [17]) it was 1.5 h. Further, the half-life in data set [2] (setting [11]) was 25.3 h; in data set [2] (setting [16]), 8.2 h; in data set [6] (setting [18]), 3.76 h. For the same compound, the “AE,urine(0–24h), fasted patients” value in data set [3] is listed as 3.4 % of dose. Also, in data set [3], the “AE,urine(0–24h), fed patients” value is 6.6 % of dose. In addition, the “%AUC(0-8) (relative to total radioactivity AUC(0-8))” value in data set [6] (2.5 mg/kg) was 2.30^c %. Besides, the “AUC(0-tn)” value in data set [6] (setting [17]) is 102 µg-eq*h/L. Besides, the “tn (time of last quantifiable concentration)” value in data set [6] (setting [17]) is listed as 5 h.
